For orientation: IC50 means the concentration that gives 50% inhibition.

Molecules are shown by their SMILES.

One assay deals with T1, monoamine oxidase-A (Rattus norvegicus, UniProt P21396).
T1 construct: serves as the tissue source for mitochondrial monoamine oxidase; from tissue; host or cells: rat whole brain minus cerebellum, P2 (crude mitochondrial) pellet
T1 sequence (P21396 1-526): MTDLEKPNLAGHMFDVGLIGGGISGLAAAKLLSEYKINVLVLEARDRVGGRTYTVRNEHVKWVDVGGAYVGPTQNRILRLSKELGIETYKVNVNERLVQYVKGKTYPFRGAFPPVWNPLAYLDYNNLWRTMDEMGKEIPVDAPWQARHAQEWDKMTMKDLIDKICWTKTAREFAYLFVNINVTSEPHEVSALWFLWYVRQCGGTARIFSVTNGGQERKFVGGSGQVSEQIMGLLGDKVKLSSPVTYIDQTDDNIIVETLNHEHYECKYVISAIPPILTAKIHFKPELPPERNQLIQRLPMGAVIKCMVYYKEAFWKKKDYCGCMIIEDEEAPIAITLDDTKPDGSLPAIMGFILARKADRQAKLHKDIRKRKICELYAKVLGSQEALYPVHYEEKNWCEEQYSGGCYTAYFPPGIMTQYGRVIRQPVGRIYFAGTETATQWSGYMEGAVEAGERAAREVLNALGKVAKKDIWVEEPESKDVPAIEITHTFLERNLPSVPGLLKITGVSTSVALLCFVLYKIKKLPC
Kind of assay: in vitro inhibition of monoamine oxidase assay (modified Kindt), MAO-A. To be noted: rat whole brain minus cerebellum, mitochondrial P2 pellet; substrate [3H]-5-hydroxytryptamine 200 µM; preincubated 15 minutes, incubated 30 minutes at 37°C; log-probit analysis. The class given is biochemical, Male Wistar rats. The protocol: (§1) In this assay, a modification of an assay described by M. V. Kindt, et al., Europ.
The following reagents are prepared: • 1. Phosphate buffer (0.5 M), pH 7.4; 134.4 g dibasic sodium phosphate heptahydrate q.s. to 1 liter in distilled water (A) 17.3 g monobasic sodium phosphate q.s. to 250 ml in distilled water (B) Adjust pH of A to 7.4 by slowly adding B (volumes as needed) Dilute 1:10 in distilled water (0.05 M phosphate buffer, pH 7.4) • 2. 0.25 M Sucrose (phosphate buffered): 21.4 g sucrose, q.s. to 250 ml with 0.05 M phosphate buffer • 3. Substrate for monoamine oxidase-A: • a. serotonin creatine sulphate (5-hydroxytryptamine) is obtained from Sigma Chemical Company. A 5 mM stock solution is made up in 0.01 N-hydrochloric acid. The solution is used to dilute the specific activity of the [^3H]-hydroxytryptamine. • b. [^3H]-5-hydroxytryptamine binoxalate (20-30 Ci/mmol) is obtained from New England Nuclear. • c. Add 12 µl of [^3H]-5-hydroxytryptamine to 2 ml of the 5 mM 5-hydroxytryptamine solution. (Final amine concentration in the assay is 200 µM: see below.) • 4. Substrate for monoamine oxidase-B • a. β-phenethylamine is obtained from Sigma Chemical Company. A 5 mM stock solution is made up in 0.01 N-hydrochloric acid. The solution is used to dilute the specific activity of the [^14C]-β-phenethylamine. • b. β-[ethyl-1-^14C]-phenethylamine hydrochloride (40-50 mCi/mmol) is obtained from New England Nuclear. • c. Add 12 µl of [^14C]-β-phenethylamine to 2 ml of the 5 mM β-phenethylamine solution. (Final amine concentration in the assay is 200 µM: see below.) • 5. Equal amounts of monoamine oxidase-A (5-hydroxytryptamine) and monoamine oxidase-B (β-phenethylamine) substrates are combined for simultaneously testing both monoamine oxidase types, i.e., mixed stock solution of 2.5 mM 5-hydroxytryptamine and 2.5 mM β-phenethylamine. 40 µl of this mixed solution gives a 200 µM final concentration of each amine in the assay. […]

For another assay, the target named is T2, monoamine oxidase-B (Rattus norvegicus, UniProt P19643).
T2 construct: serves as the tissue source for mitochondrial monoamine oxidase; from tissue; host or cells: rat whole brain minus cerebellum, P2 (crude mitochondrial) pellet
T2 sequence (P19643 1-520): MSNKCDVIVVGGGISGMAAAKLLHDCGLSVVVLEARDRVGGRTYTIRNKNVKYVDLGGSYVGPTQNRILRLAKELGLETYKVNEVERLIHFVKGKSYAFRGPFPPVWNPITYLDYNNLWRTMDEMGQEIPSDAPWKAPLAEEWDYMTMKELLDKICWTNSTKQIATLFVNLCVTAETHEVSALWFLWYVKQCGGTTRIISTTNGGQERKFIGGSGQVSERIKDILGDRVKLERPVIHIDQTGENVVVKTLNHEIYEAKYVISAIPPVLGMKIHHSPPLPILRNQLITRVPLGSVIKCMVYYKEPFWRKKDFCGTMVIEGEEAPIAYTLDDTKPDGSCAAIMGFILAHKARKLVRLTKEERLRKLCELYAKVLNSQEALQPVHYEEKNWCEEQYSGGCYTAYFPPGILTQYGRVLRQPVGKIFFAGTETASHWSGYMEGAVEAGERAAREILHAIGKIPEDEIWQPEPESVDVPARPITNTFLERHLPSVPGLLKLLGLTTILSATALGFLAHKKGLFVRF
Kind of assay: in vitro inhibition of monoamine oxidase assay (modified Kindt), MAO-B. The class given is biochemical, Male Wistar rats. The note with it: rat whole brain minus cerebellum, mitochondrial P2 pellet; substrate [14C]-β-phenethylamine 200 µM; preincubated 15 minutes, incubated 30 minutes at 37°C; log-probit analysis. How it is done: as §1
The following reagents are prepared: • 1. Phosphate buffer (0.5 M), pH 7.4; 134.4 g dibasic sodium phosphate heptahydrate q.s. to 1 liter in distilled water (A) 17.3 g monobasic sodium phosphate q.s. to 250 ml in distilled water (B) Adjust pH of A to 7.4 by slowly adding B (volumes as needed) Dilute 1:10 in distilled water (0.05 M phosphate buffer, pH 7.4) • 2. 0.25 M Sucrose (phosphate buffered): 21.4 g sucrose, q.s. to 250 ml with 0.05 M phosphate buffer • 3. Substrate for monoamine oxidase-A: • a. serotonin creatine sulphate (5-hydroxytryptamine) is obtained from Sigma Chemical Company. A 5 mM stock solution is made up in 0.01 N-hydrochloric acid. The solution is used to dilute the specific activity of the [^3H]-hydroxytryptamine. • b. [^3H]-5-hydroxytryptamine binoxalate (20-30 Ci/mmol) is obtained from New England Nuclear. • c. Add 12 µl of [^3H]-5-hydroxytryptamine to 2 ml of the 5 mM 5-hydroxytryptamine solution. (Final amine concentration in the assay is 200 µM: see below.) • 4. Substrate for monoamine oxidase-B • a. β-phenethylamine is obtained from Sigma Chemical Company. A 5 mM stock solution is made up in 0.01 N-hydrochloric acid. […]

For the next assay, the target named is T3, acetylcholinesterase (Rattus norvegicus, UniProt P37136).
T3 construct: corpora striata dissected free, weighted and homogenized in 19 volumes; from tissue; host or cells: rat brain corpora striata, crude homogenate
T3 sequence (P37136 32-614): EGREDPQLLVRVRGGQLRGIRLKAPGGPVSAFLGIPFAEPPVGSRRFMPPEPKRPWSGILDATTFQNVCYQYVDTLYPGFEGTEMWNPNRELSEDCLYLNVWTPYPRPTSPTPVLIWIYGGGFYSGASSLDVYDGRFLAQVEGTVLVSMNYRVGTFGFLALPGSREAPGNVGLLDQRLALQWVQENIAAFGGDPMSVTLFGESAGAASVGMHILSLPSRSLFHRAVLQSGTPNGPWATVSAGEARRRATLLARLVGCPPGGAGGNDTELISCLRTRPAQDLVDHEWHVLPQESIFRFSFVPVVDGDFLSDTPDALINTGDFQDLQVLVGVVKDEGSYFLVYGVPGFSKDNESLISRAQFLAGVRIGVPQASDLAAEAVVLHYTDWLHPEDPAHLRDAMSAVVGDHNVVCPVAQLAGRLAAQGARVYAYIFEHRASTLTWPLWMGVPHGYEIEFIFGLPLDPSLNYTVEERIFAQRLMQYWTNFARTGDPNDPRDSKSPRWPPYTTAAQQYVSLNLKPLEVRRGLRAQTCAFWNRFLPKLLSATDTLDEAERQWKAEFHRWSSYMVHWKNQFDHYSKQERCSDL
Kind of assay: biochemical. More on the design: species or system Male Wistar rats. The note with it: rat corpora striata homogenate; preincubated 10 minutes at 37°C; acetylthiocholine substrate 5 millimolar final; log-probit analysis; read-out: Inhibition of Acetylcholinesterase Activity IC50.

Protocol for acetylcholinesterase: 0.05M Phosphate Buffer (pH 7.2) A solution of monobasic sodium phosphate monohydrate (6.85 g) in distilled water (100 ml) is added to a solution of dibasic sodium phosphate heptahydrate (13.4 g) and distilled water (100 ml) until a pH of 7.2 was attained. The solution was diluted 1 to 10 with distilled water. • 2. […] 5,5-Dithiobisnitrobenzoic acid in Buffer The 0.05M Phosphate Buffer (pH 7.2) was added to 5.5-dithiobisnitrobenzoic acid to a total volume of 100 ml, i.e., a quantity sufficient (gs) to 100 ml. • 4. Stock Solution of Drug A 2 millimolar stock solution of the test drug is prepared in a quantity sufficient of either acetic acid or dimethyl sulfoxide to volume with 5,5-dithiobisnitrobenzoic acid in Buffer. […]
Male Wistar rats are decapitated, brains rapidly removed, corpora striata dissected free, weighted and homogenized in 19 volumes (approximately 7 mg protein/ml) of 0.05M Phosphate Buffer (pH 7.2) using a Potter-Elvejhem homogenizer. […] Enzyme activity is measured with a Beckman DU-50 spectrophotometer with the following software and instrument settings: • 1. […]
Blank values are determined for each run to control for non-enzymatic hydrolysis of substrate and these values are automatically subtracted by the Kindata program available on kinetics soft-pac module. This program also calculates the rate of absorbance change for each cuvette. […]

As for `COc1cccc(CN2CCC3(CCc4c3n(C)c3ccccc43)CC2)c1` [1,4-Dihydro-1'-(3-methoxyphenyl)methyl-4-methylspiro[cyclopent[b]indole-3(2H), 4'piperidine]], on monoamine oxidase-A, the half-inhibitory concentration (IC50) came out at 51.2 µM.

As to `COc1ccc(CN2CCC3(CCc4c3n(C)c3ccccc43)CC2)cc1` [1,4-Dihydro-1'-(4-methoxyphenyl)methyl-4-methylspiro[cyclopent[b]indole-3(2H), 4'-piperidine]], the IC50 came out at 125 µM against monoamine oxidase-B, 65.2 µM on acetylcholinesterase and 98.6 µM at monoamine oxidase-A.

`CNC(=O)Oc1ccc2c(c1)c1c(n2C)C2(CC1)CCN(Cc1ccccc1)CC2` [1,4-Dihydro-4-methyl-7-methylaminocarbonyloxy-1'-phenylmethylspiro[cyclopent[b]indole-3(2H), 4'-piperidine]]: the IC50 on acetylcholinesterase amounted to 10.5 µM.

On monoamine oxidase-A, `COc1cc(Br)c2oc(C3CCNCC3)cc2c1` [brofaromine, reference compound] displayed a 50% inhibitory concentration (IC50) of 0.18 µM.
